According to patent US20050065118A1, “Organosulfur inhibitors of tyrosine phosphatases” (priority 2001, published 2005):

Test system: not given
Experiment: not given

| melting point | SMILES |
| --- | --- |
| 140 to 141 °C | O=C(O)CCSC(c1cccc(-c2nnc(Nc3ccc(Cl)c(Cl)c3)s2)c1)c1cccc(C(F)(F)F)c1 (centres unmarked) |
| 273 to 275 °C | O=[N+]([O-])c1cccc(-c2nnc(Nc3cccc(Br)c3)s2)c1 [Example 1, N2-(3-bromophenyl)-5-(3-nitrophenyl)-1,3,4-thiadiazol-2-amine] |
| 194 to 196 °C | O=C(O)CCc1cccc(Oc2cccc(-c3nnc(Nc4ccc(Cl)c(Cl)c4)s3)c2)c1 [Example 9, 3-[3-(3-{5-[(3,4-Dichlorophenyl)amino]-1,3,4-thiadiazol-2-yl}phenoxy)phenyl]propanoic acid] |
| 184 to 185 °C | O=[N+]([O-])c1ccccc1OCc1nnc(Nc2cccc(Br)c2)s1 [Example 36, (3-Bromophenyl){5-[(2-nitrophenoxy)methyl](1,3,4-thiadiazol-2-yl)}amine] |
| 208 to 209 °C | COc1ccc(CSc2cccc(Nc3nnc(-c4cccc([N+](=O)[O-])c4)s3)c2)cc1 [Example 41, {3-[(4-Methoxyphenyl)methylthio]phenyl}[5-(3-nitrophenyl)(1,3,4-thiadiazol-2-yl)]amine] |
| 185 to 187 °C | COc1cccc(-c2nnc(Nc3ccc(F)c(Cl)c3)s2)c1 [Example 68, (3-chloro-4-fluorophenyl)[5-(3-methoxyphenyl)(1,3,4-thiadiazol-2-yl)]amine] |
| 215 to 217 °C | COc1cccc(-c2nnc(Nc3ccc(Br)c(Cl)c3)s2)c1 [Example 69, (4-bromo-3-chlorophenyl)[5-(3-methoxyphenyl)(1,3,4-thiadiazol-2-yl)]amine] |
| 170 to 172 °C | CCOc1cccc(-c2nnc(Nc3ccc(F)c(Cl)c3)s2)c1 [Example 70, (3-chloro-4-fluorophenyl)[5-(3-ethoxyphenyl)(1,3,4-thiadiazol-2-yl)]amine] |
| 201 to 202 °C | CCOc1cccc(-c2nnc(Nc3ccc(Br)c(C)c3)s2)c1 [Example 71, (4-bromo-3-methylphenyl)[5(3-ethoxyphenyl)(1,3,4-thiadiazol-2-yl)]amine] |
| 195 to 197 °C | CCOc1cccc(-c2nnc(Nc3cccc(Br)c3)s2)c1 [Example 74, (3-bromophenyl)[5-(3-ethoxyphenyl)(1,3,4-thiadiazol-2-yl)]amine] |
| 240 to 242 °C | O=[N+]([O-])c1cccc(-c2nnc(Nc3cccc(Cl)c3Cl)s2)c1 [Example 76, (2,3-dichlorophenyl)[5-(3-nitrophenyl)(1,3,4-thiadiazol-2-yl)]amine] |
| 326 to 327 °C | Clc1cc(Nc2nnc(-c3ccc4nonc4c3)s2)ccc1Br [Example 122, (5-benzo[3,4-c]1,2,5-oxadiazol-5-yl(1,3,4-thiadiazol-2-yl))(4-bromo-3-chlorophenyl)amine] |
| 206 to 207 °C | CCOC(=O)c1ccc(Nc2nnc(-c3ccc(Oc4ccccc4)cc3)s2)cc1 [Example 123, ethyl 4-{[5-(4-phenoxyphenyl)-1,3,4-thiadiazol-2-yl]amino}benzoate] |
| 210.5 to 211.5 °C | O=[N+]([O-])c1cccc(Oc2cccc(-c3nnc(Nc4ccc(Cl)c(Cl)c4)s3)c2)c1 [Example 126, (3,4-dichlorophenyl){5-[3-(3-nitrophenoxy)phenyl](1,3,4-thiadiazol-2-yl)}amine] |
| 183 to 184 °C | O=C(O)Cc1cccc(Oc2cccc(-c3nnc(Nc4ccc(Cl)c(Cl)c4)s3)c2)c1 [Example 127, 2-[3-(3-{5-[(3,4-dichlorophenyl)amino]-1,3,4-thiadiazol-2-yl}phenoxy)phenyl]acetic acid] |
| 224 to 225.5 °C | Oc1ccc(Oc2cccc(-c3nnc(Nc4ccc(Cl)c(Cl)c4)s3)c2)cc1 [Example 128, 4-(3-{-[(3,4-dichlorophenyl)amino]-1,3,4-thiadiazol-2-yl}phenoxy)phenol] |
| 166 to 167 °C | FC(F)(F)Oc1cccc(COc2cccc(-c3nnc(Nc4ccc(Cl)c(Cl)c4)s3)c2)c1 [Example 129, (3,4-dichlorophenyl)[5-(3-{[3-(trifluoromethoxy)phenyl]methoxy}phenyl)(1,3,4-thiadiazol-2-yl)]amine] |
| 114 to 115 °C | CCOc1cccc(-c2nnc(N(Cc3cccc([N+](=O)[O-])c3)c3ccc(Cl)c(Cl)c3)s2)c1 [Example 147, (3,4-dichlorophenyl)[5-(3-ethoxyphenyl)(1,3,4-thiadiazol-2-yl)][(3-nitrophenyl)methyl]amine] |
| 198 to 199 °C | COc1ccc(Oc2cccc(-c3nnc(Nc4ccc(Cl)c(Cl)c4)s3)c2)cc1 [Example 150, (3,4-dichlorophenyl)(5-[3-(4-methoxyphenoxy)phenyl](1,3,4-thiadiazol-2-yl)}amine] |
| 210 to 211 °C | Cc1ccc(Oc2cccc(-c3nnc(Nc4ccc(Cl)c(Cl)c4)s3)c2)cc1 [Example 151, (3,4-dichlorophenyl){5-[3-(4-methylphenoxy)phenyl](1,3,4-thiadiazol-2-yl)}amine] |
| 242 to 243 °C | Clc1cc(Cl)cc(Oc2cccc(-c3nnc(Nc4ccc(Cl)c(Cl)c4)s3)c2)c1 [Example 152, (3,4-dichlorophenyl){5-[3-(3,5-dichlorophenoxy)phenyl](1,3,4-thiadiazol-2-yl)}amine] |
| 189 to 190 °C | Clc1ccc(Nc2nnc(-c3cccc(Oc4ccc(Cl)c(Cl)c4)c3)s2)cc1Cl [Example 153, (3,4-dichlorophenyl)(5-[3-(3,4-dichlorophenoxy)phenyl](1,3,4-thiadiazol-2-yl)}amine] |
| 212 to 213 °C | FC(F)(F)c1cccc(Oc2cccc(-c3nnc(Nc4ccc(Cl)c(Cl)c4)s3)c2)c1 [Example 154, (3,4-dichlorophenyl)(5-{3-[3-(trifluoromethyl)phenoxy]phenyl}(1,3,4-thiadiazol-2-yl))amine] |
| 114 to 116 °C | O=C(O)c1ccc(CN(c2ccc(Cl)c(Cl)c2)c2nnc(-c3cccc(Oc4cccc(C(F)(F)F)c4)c3)s2)cc1 [Example 157, 4-{[(3,4-dichlorophenyl)(5-{3-[3-(trifluoromethyl)phenoxy]phenyl}-(1,3,4-thiadiazol-2-yl))amino]methyl}benzoic acid] |
| 128 to 130 °C | Nc1nnc(-c2cccc(Oc3cccc(COc4ccc(Cl)c(Cl)c4)c3)c2)s1 [Example 158, (3,4-dichlorophenyl)(5-{3-[3-(oxymethyl)phenoxy]phenyl)(1,3,4-thiadiazol-2-yl))amine] |
| 212 to 214 °C | Clc1ccc(Nc2nnc(-c3cc(OCc4ccccc4)cc(OCc4ccccc4)c3)s2)cc1Cl [Example 160, (3,4-dichlorophenyl){5-[3,5-bis(phenylmethoxy)phenyl](1,3,4-thiadiazol-2-yl)}amine] |
| 315 to 317 °C | Clc1ccc(Nc2nnc(-c3ccc4nonc4c3)s2)cc1Cl [Example 162, (5-benzo[c]1,2,5-oxadiazol-5-yl(1,3,4-thiadiazol-2-yl))(3,4-dichlorophenyl)amine] |
| 277.5 to 279 °C | CC(=NNc1ccc(C(=O)O)cc1)c1cccc(Nc2nnc(-c3cccc(Oc4cccc(C(F)(F)F)c4)c3)s2)c1 [Example 165, 4-{N′-[1-(3-{5-[3-(3-Trifluoromethyl-phenoxy)-phenyl]-[1,3,4]thiadiazol-2-ylamino}-phenyl)-ethylidene]-hydrazino}-benzoic acid] |
| 192 to 195 °C | O=C(O)c1ccc(CNc2nnc(-c3cccc(Oc4ccccc4)c3)s2)cc1 [Example 166, 4-({[5-(3-phenoxyphenyl)-1,3,4-thiadiazol-2-yl]amino}methyl)benzoic acid] |

Molecular target: T1, PTP-1B (Homo sapiens, UniProt P18031)
T1 sequence (P18031 1-435): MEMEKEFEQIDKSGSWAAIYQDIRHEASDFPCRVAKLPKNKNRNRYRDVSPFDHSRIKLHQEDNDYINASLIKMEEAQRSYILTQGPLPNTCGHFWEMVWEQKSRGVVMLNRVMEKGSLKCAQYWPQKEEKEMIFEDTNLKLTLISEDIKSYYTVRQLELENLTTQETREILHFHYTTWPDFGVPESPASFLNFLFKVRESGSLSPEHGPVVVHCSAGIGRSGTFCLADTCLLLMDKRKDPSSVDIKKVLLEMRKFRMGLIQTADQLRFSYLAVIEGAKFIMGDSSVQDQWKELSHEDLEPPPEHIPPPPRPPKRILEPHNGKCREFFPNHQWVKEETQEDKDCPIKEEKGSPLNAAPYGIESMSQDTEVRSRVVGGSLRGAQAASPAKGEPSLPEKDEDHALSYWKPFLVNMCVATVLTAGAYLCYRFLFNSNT
Experiment: PTP-1B inhibition, Malachite Green assay with pIRP substrate
Type: biochemical
Protocol: The compounds of the present invention are evaluated for biological activity as inhibitors of PTP-1B using, for example, a Malachite Green assay with pIRP as a substrate. The pIRP substrate includes a phosphotyrosine residue, and PTP-1B cleaves the phosphate group from the tyrosine, yielding the peptide and phosphate. The rate of the enzymatic reaction is determined by measuring the phosphate released during the reaction.
The reactants for the assay include 20 mM Tris-HCl, pH 7.4, 2 mM EDTA (ethylaminediamine tetraacetic acid) and 2 mM DTT (dithiothreitol) as the assay buffer, and 1 mM pIRP in assay buffer (1 mg in 0.59 mL buffer) as the substrate stock. The Malachite Green solution is prepared by adding 30 μL of 1% Tween 20 to 1 mL of Malachite Green Solution A. The stock of each compound to be tested is made up as 10 mM in DMSO (dimethylsulfoxide).
The compound to be tested is prepared as 1:5, 1:15.8, 1:50 and 1:158 dilutions from stock in a total volume of […]. The reaction mixtures are prepared in a 96-well microtiter plate as 27.5 μL assay buffer, […] of the diluted compound (to a final concentration of 100, 32, 10 and 3.2 μM), 10 μL of the pIRP substrate solution (to a final concentration of 200 μM) and 10 μL PTPase in assay buffer. The reactants are mixed well, the plate placed in a water bath at 30° C. and incubated for 3 minutes. The reaction is then terminated by adding 100 μL of Malachite Green solution per well, color is allowed to develop for 15 minutes, and the A650 is measured by conventional means.
Unless otherwise indicated, this assay was used to determine activity for the selected compounds whose activity is recorded in the Table.

| IC50 | SMILES |
| --- | --- |
| 10 µM | O=C(O)c1cccc(Nc2nnc(-c3cc(OCc4ccccc4)cc(OCc4ccccc4)c3)s2)c1 [Compound 188, 3-[5-(3,5-Bis-benzyloxy-phenyl)-[1,3,4]thiadiazol-2-ylamino]-benzoic acid] |
| 4 µM | O=C(O)c1cccc(Nc2nnc(-c3cc(Oc4cccc(C(F)(F)F)c4)cc(Oc4cccc(C(F)(F)F)c4)c3)s2)c1 [Compound 198, 3-{5-[3,5-Bis-(3-trifluoromethyl-phenoxy)-phenyl]-[1,3,4]thiadiazol-2-ylamino}-benzoic acid] |

| SMILES | IC50 |
| --- | --- |
| O=C(O)c1ccc(CN(c2ccc(Cl)c(Cl)c2)c2nc(-c3ccc(-c4ccccc4)cc3)cs2)cc1 [Example 168, 4-({(3,4-dichlorophenyl)[4-(4-phenylphenyl)(1,3-thiazol-2-yl)]amino}methyl)benzoic acid.] | 1 µM |
